Experiment: Examination of molecular state of AC220 in aqueous solution (1H chemical shift displacements, NOESY)
Assay type: physicochemical
Experimental: The molecular state of AC220 in the aqueous solution was examined. […] The protons of d and e could not be analyzed due to the overlapping with other proton signals.
Furthermore, the Hill coefficient was calculated from the analysis of the ^1H chemical shift displacements: the value was greater than 1, and indicated a network formation. It was confirmed that the addition of methanol to the AC220 aqueous solution inhibited the gel formation, and that the network was formed by intermolecular hydrogen bonding.

For `CC(C)(C)c1cc(NC(=O)Nc2ccc(-c3cn4c(n3)sc3cc(OCCN5CCOCC5)ccc34)cc2)no1` [AC220, N-(5-tert-butyl-isoxazol-3-yl)-N′-{4-[7-(2-morpholin-4-yl-ethoxy)imidazo[2,1-b][1,3]benzothiazol-2-yl]phenyl}urea], the Hill coefficient (calculated from 1H chemical shift displacements of AC220 aqueous solutions, indicates network formation) was “greater than 1” and the Solubility in water (gelation of the aqueous solution with increasing concentration) was “soluble”.

— patent publication US9675549B2, “Tablet containing composite with cyclodextrin” (AMBIT BIOSCIENCES CORPORATION, priority 2012, dated 2017)
